What was measured:
S. pneumoniae D39V [1] = experiment: fitness (endpoint OD595 vs no drug) (fraction); higher = more growth
Method in brief: (§1)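 Fitness compares growth at the stationary-phase transition with the robust mean of no-drug control wells, as a ratio of optical densities. The ratio is capped at 1. Wells of 384-well plates held 30 µl, or 55 µl for S. pneumoniae, inoculated at OD595 0.01. Readings at OD595 every 30 min for 14 h at 37 °C were corrected against the first reading.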

B. subtilis 168 [2] = experiment: as above; settings: one replicate
Method in brief: as §1

S. pneumoniae D39V [3] = experiment: Bliss interaction score (quartile over a dose matrix) (fitness difference); higher = more antagonism (negative = synergy)
Method in brief: (§2)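 Fitness here means normalised growth, inferred for single drugs from the combination data. Growth was OD595 at entry into stationary phase, divided by the plate's robust no-drug mean and capped at 1. The Bliss score is observed minus expected fitness, with the expectation being the product, and its quartiles span technical, biological and donor/recipient replicates.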

S. aureus DSM 20231 = experiment: as above
Method in brief: as §2

B. subtilis 168 [4] = experiment: as above
Method in brief: as §2

S. aureus Newman = experiment: as above
Method in brief: as §2
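Throughout, for Bliss interaction score (quartile over a dose matrix): first quartile when negative (synergy) and third quartile when positive (antagonism).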
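Throughout, for fitness (endpoint OD595 vs no drug): OD595 on entry to stationary phase over no-drug wells; at most 1.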

C[C@H]1COc2c(N3CCN(C)CC3)c(F)cc3c(=O)c(C(=O)O)cn1c23 [Levofloxacin] + CCC(C)C1C(=O)NC(=C)C(=O)NC(C(=O)NC(CSCC(C(=O)N1)NC(=O)/C(=C/C)/NC(=O)C(C(C)CC)N)C(=O)NC2C(SCC(NC(=O)CNC(=O)C3CCCN3C2=O)C(=O)NC(CCCCN)C(=O)NC4C(SCC(NC(=O)CNC(=O)C(NC(=O)C(NC(=O)C(NC(=O)CNC4=O)C)CC(C)C)CCSC)C(=O)NC(CC(=O)N)C(=O)NC(CCSC)C(=O)NC(CCCCN)C(=O)NC5C(SCC6C(=O)NC(C(=O)NC(CSC(C(C(=O)N6)NC(=O)C(NC5=O)C)C)C(=O)NC(CO)C(=O)NC(C(C)CC)C(=O)NC(CC7=CN=CN7)C(=O)NC(C(C)C)C(=O)NC(=C)C(=O)NC(CCCCN)C(=O)O)CC8=CN=CN8)C)C)C)CC(C)C [Nisin]
main component drawn
Settings	fitness
B. subtilis 168 [2], first compound 0.001 µg/mL, partner 0.5 µg/mL	0.923
B. subtilis 168 [2], first compound 0.001 µg/mL, partner 1 µg/mL	0.88
B. subtilis 168 [2], first compound 0.001 µg/mL, partner 2 µg/mL	0.778
B. subtilis 168 [2], first compound 0.002 µg/mL, partner 0.5 µg/mL	0.904
B. subtilis 168 [2], first compound 0.002 µg/mL, partner 1 µg/mL	0.871
B. subtilis 168 [2], first compound 0.002 µg/mL, partner 1.25 µg/mL	0.883
B. subtilis 168 [2], first compound 0.002 µg/mL, partner 1.6 µg/mL	0.744
B. subtilis 168 [2], first compound 0.002 µg/mL, partner 2 µg/mL	0.76
B. subtilis 168 [2], first compound 0.002 µg/mL, partner 2.5 µg/mL	0.696
B. subtilis 168 [2], first compound 0.002 µg/mL, partner 3.2 µg/mL	0.0329
B. subtilis 168 [2], first compound 0.002 µg/mL, partner 5 µg/mL	0.0276
B. subtilis 168 [2], first compound 0.002 µg/mL, partner 6.4 µg/mL	0.0319
B. subtilis 168 [2], first compound 0.0039 µg/mL, partner 0.5 µg/mL	0.898
B. subtilis 168 [2], first compound 0.0039 µg/mL, partner 1 µg/mL	0.882
B. subtilis 168 [2], first compound 0.0039 µg/mL, partner 1.25 µg/mL	0.888
B. subtilis 168 [2], first compound 0.0039 µg/mL, partner 1.6 µg/mL	0.734
B. subtilis 168 [2], first compound 0.0039 µg/mL, partner 2 µg/mL	0.747
B. subtilis 168 [2], first compound 0.0039 µg/mL, partner 2.5 µg/mL	0.319
B. subtilis 168 [2], first compound 0.0039 µg/mL, partner 3.2 µg/mL	0.0154
B. subtilis 168 [2], first compound 0.0039 µg/mL, partner 5 µg/mL	0.088
B. subtilis 168 [2], first compound 0.0039 µg/mL, partner 6.4 µg/mL	0.0555
B. subtilis 168 [2], first compound 0.0078 µg/mL, partner 1.25 µg/mL	0.868
B. subtilis 168 [2], first compound 0.0078 µg/mL, partner 1.6 µg/mL	0.701
B. subtilis 168 [2], first compound 0.0078 µg/mL, partner 2.5 µg/mL	0.598
B. subtilis 168 [2], first compound 0.0078 µg/mL, partner 3.2 µg/mL	0.0243
B. subtilis 168 [2], first compound 0.0078 µg/mL, partner 5 µg/mL	0.112
B. subtilis 168 [2], first compound 0.0078 µg/mL, partner 6.4 µg/mL	0.0288
B. subtilis 168 [2], first compound 0.0312 µg/mL, partner 0.5 µg/mL	0.0428
B. subtilis 168 [2], first compound 0.0312 µg/mL, partner 1 µg/mL	0.032
B. subtilis 168 [2], first compound 0.0312 µg/mL, partner 2 µg/mL	0.0482
B. subtilis 168 [2], first compound 0.0312 µg/mL, partner 4 µg/mL	0.0425
B. subtilis 168 [2], first compound 0.0312 µg/mL, partner 8 µg/mL	0.0314
B. subtilis 168 [2], first compound 0.0312 µg/mL, partner 16 µg/mL	0.0291
B. subtilis 168 [2], first compound 0.0625 µg/mL, partner 0.5 µg/mL	0.0426
B. subtilis 168 [2], first compound 0.0625 µg/mL, partner 1 µg/mL	0.0609
B. subtilis 168 [2], first compound 0.0625 µg/mL, partner 2 µg/mL	0.0558
B. subtilis 168 [2], first compound 0.0625 µg/mL, partner 4 µg/mL	0.0381
B. subtilis 168 [2], first compound 0.0625 µg/mL, partner 8 µg/mL	0.0402
B. subtilis 168 [2], first compound 0.0625 µg/mL, partner 16 µg/mL	0.0222
B. subtilis 168 [2], first compound 0.125 µg/mL, partner 0.5 µg/mL	0.0499
B. subtilis 168 [2], first compound 0.125 µg/mL, partner 1 µg/mL	0.0546
B. subtilis 168 [2], first compound 0.125 µg/mL, partner 2 µg/mL	0.0347
B. subtilis 168 [2], first compound 0.125 µg/mL, partner 4 µg/mL	0.0437
B. subtilis 168 [2], first compound 0.125 µg/mL, partner 8 µg/mL	0.0327
B. subtilis 168 [2], first compound 0.125 µg/mL, partner 16 µg/mL	0.0121
S. pneumoniae D39V [1], first compound 0.1725 µg/mL, partner 1.6 µg/mL	0.157
S. pneumoniae D39V [1], first compound 0.1725 µg/mL, partner 3.2 µg/mL	0.0386
S. pneumoniae D39V [1], first compound 0.1725 µg/mL, partner 6.4 µg/mL	0.0067
S. pneumoniae D39V [1], first compound 0.2 µg/mL, partner 0.4275 µg/mL	0.906
S. pneumoniae D39V [1], first compound 0.2 µg/mL, partner 0.855 µg/mL	0.956
S. pneumoniae D39V [1], first compound 0.2 µg/mL, partner 1.71 µg/mL	0.0809
S. pneumoniae D39V [1], first compound 0.345 µg/mL, partner 3.2 µg/mL	0.0036
S. pneumoniae D39V [1], first compound 0.345 µg/mL, partner 6.4 µg/mL	0.0023
S. pneumoniae D39V [1], first compound 0.4 µg/mL, partner 0.4275 µg/mL	0.844
S. pneumoniae D39V [1], first compound 0.4 µg/mL, partner 1.71 µg/mL	0.0708
S. pneumoniae D39V [1], first compound 0.69 µg/mL, partner 1.6 µg/mL	0.0158
S. pneumoniae D39V [1], first compound 0.69 µg/mL, partner 3.2 µg/mL	0.0153
S. pneumoniae D39V [1], first compound 0.69 µg/mL, partner 6.4 µg/mL	0.0526
S. pneumoniae D39V [1], first compound 0.8 µg/mL, partner 0.4275 µg/mL	0.298
S. pneumoniae D39V [1], first compound 0.8 µg/mL, partner 0.855 µg/mL	0.102
S. pneumoniae D39V [1], first compound 0.8 µg/mL, partner 1.71 µg/mL	0.0697

main component drawn
Settings	Bliss interaction score
B. subtilis 168 [4]	0.0523
S. aureus DSM 20231	0.0616
S. aureus Newman	-0.0668
S. pneumoniae D39V [3]	-0.0976

C[C@H]1COc2c(N3CCN(C)CC3)c(F)cc3c(=O)c(C(=O)O)cn1c23 [Levofloxacin] + CN(N=O)C(=O)N[C@@H](C=O)[C@@H](O)[C@H](O)[C@H](O)CO [Streptozotocin]
fitness
Settings	first compound 0.001 µg/mL	first compound 0.002 µg/mL	first compound 0.0039 µg/mL	first compound 0.0312 µg/mL	first compound 0.0625 µg/mL	first compound 0.125 µg/mL	first compound 0.1725 µg/mL	first compound 0.345 µg/mL	first compound 0.69 µg/mL
B. subtilis 168 [2], partner 0.15 µg/mL	0.98	0.923	0.934	0.0317	0.0292	0.0367	–	–	–
B. subtilis 168 [2], partner 0.3 µg/mL	0.96	0.948	0.886	0.0288	0.0412	0.0451	–	–	–
B. subtilis 168 [2], partner 0.6 µg/mL	≥ 1	≥ 1	0.979	0.025	0.0304	0.0177	–	–	–
S. pneumoniae D39V [1], partner 1.2 µg/mL	–	–	–	–	–	–	0.938	0.816	0.362
S. pneumoniae D39V [1], partner 2.4 µg/mL	–	–	–	–	–	–	0.936	0.845	0.398
S. pneumoniae D39V [1], partner 4.8 µg/mL	–	–	–	–	–	–	0.952	0.841	0.44

fitness, S. pneumoniae D39V [1], one replicate
Settings	first compound 0.2 µg/mL	first compound 0.4 µg/mL	first compound 0.8 µg/mL
partner 1.2 µg/mL	0.925	0.759	0.259
partner 2.4 µg/mL	0.909	0.802	0.302
partner 4.8 µg/mL	0.823	0.603	0.0669

Settings	Bliss interaction score
B. subtilis 168 [4]	0.0603
S. aureus DSM 20231	-0.0228
S. aureus Newman	-0.102
S. pneumoniae D39V [3]	-0.0624

— the supplement of paper PMC10627819
